In patent publication US4737504A, “5-fluoro-and 8-fluoro-trimetoquinol compounds and the processes for their preparation” (priority 1986, dated 1988):
Where two headings read alike, the source gives them in different places.

Tests used:
[1] = system: human platelets (U46619-induced aggregation); experiment: inhibition of U46619-induced platelet aggregation in presence of aspirin, human platelet-rich plasma; assay type: cell-based; conditions: U46619 0.5-1.5 μM, aspirin 1 mM
Description: (§1) The antiaggregatory and antisecretory activity on human platelets was determined by evaluating the in vitro aggregation and [^14 C]serotonin secretion in human platelet preparations. Blood was taken by venipuncture from normal human volunteers who were reported to be free of medication for at least 10 days before blood drawing. Venous blood samples were mixed with acid-citrate dextrose solution (9:1) and centrifuged at 120×g for 15 minutes at room temperature to obtain platelet-rich plasma, PRP, (Huzoor-Akbar et al., Biochem. Pharmacol., 30: 2013-2020, 1981). The PRP was transferred to polypropylene tubes and stored under an atmosphere of 8% CO2. The remaining blood was centrifuged at 1000×g for 10 minutes to obtain platelet-poor plasma. […] Platelet counts varied between 280,000 to 320,000 per cmm or were adjusted to 300,000 per cmm for the aggregation and secretion experiments. All studies were conducted within 2 hours after PRP recovery.
(§2) For aggregation studies, 0.5 ml of PRP was incubated with drug or vehicle (1-5 μl) for 1 minute at 37° C. before the initiation of aggregation with inducers. […] In all experiments, the minimum concentration of inducer (adenosine diphosphate ADP; epinephrine, E; 15S-hydroxy-11α,9α-epoxymethanoprosta-5Z,13E-dienoic acid, U46619; collagen; and arachidonic acid, AA) which caused maximal irreversible aggregation within each PRP preparation was used. Aggregation was monitored for 4 to 6 minutes after the addition of an inducer and data were presented as a percentage inhibition of either slope or maximal light transmittance changes in the presence of varying drug concentrations.

[2] = system: human platelets (U46619-induced serotonin secretion); experiment: inhibition of U46619-induced serotonin secretion in presence of aspirin, human platelet-rich plasma; assay type: cell-based; conditions: U46619 0.5-1.5 μM, aspirin 1 mM
Description: as §1, §2
(§3) Secretion data were calculated as the net increase of serotonin released into the supernatant by each inducer and expressed as a percentage of the total radioactivity in platelets Mayo et al., Biochem. Pharmacol., 30: 2237-2241, 1981. The effect of compounds on serotonin release was expressed as the percentage of inhibition of the maximum release by each inducer and plotted against the log molar concentrations of each agent.

[3] = system: human platelets (arachidonic acid-induced aggregation); experiment: inhibition of arachidonic acid-induced platelet aggregation, human platelet-rich plasma; assay type: cell-based; conditions: arachidonic acid 100-300 μM
Description: as §1, §2

[4] = system: human platelets (collagen-induced aggregation); experiment: inhibition of collagen-induced platelet aggregation, human platelet-rich plasma; assay type: cell-based; conditions: collagen 10-100 μg/ml
Description: as §1, §2

[5] = system: human platelets (collagen-induced serotonin secretion); experiment: inhibition of collagen-induced serotonin secretion, human platelet-rich plasma; assay type: cell-based; conditions: collagen 10-100 μg/ml
Description: as §1, §2, §3

[6] = system: human platelets (ADP-induced aggregation); experiment: inhibition of the secondary phase of ADP-induced platelet aggregation, human platelet-rich plasma; assay type: cell-based; conditions: ADP 1-3 μM
Description: as §1, §2

[7] = system: human platelets (ADP-induced serotonin secretion); experiment: inhibition of ADP-induced serotonin secretion, human platelet-rich plasma; assay type: cell-based; conditions: ADP 1-3 μM
Description: as §1, §2, §3

[8] = system: human platelets (epinephrine-induced aggregation); experiment: inhibition of the secondary phase of epinephrine-induced platelet aggregation, human platelet-rich plasma; assay type: cell-based; conditions: epinephrine 1-10 μM
Description: as §1, §2

human platelets = experiment: human platelet aggregation and serotonin release, inducers taken together; assay type: cell-based; conditions: for inhibition of aggregation and serotonin release: each inducer
Description: as §1, §2, §3

[9] = phenol acidities (pKa) determined spectrophotometrically; assay type: physicochemical; conditions: for pKa: phenol, tris(hydroxymethyl)aminomethane buffer, UV; for times more acidic than 1: relative to trimetoquinol 1
Description: Phenol acidities (pKa) were determined spectrophotometrically, as described by Albert et al., "The determination of Ionization Constants" 3rd Ed., Chapman and Hall, London and New York, 1984, by measuring the absorption as a function of pH in tris(hydroxymethyl)aminomethane buffer. Since the catechols tended to oxidize in basic media the buffers were degassed and flushed with argon prior to use.

[10] = read-out: IC50 platelet aggregation
[11] = read-out: pIC50 platelet aggregation (converted)
[12] = read-out: IC50 serotonin secretion
[13] = read-out: pIC50 serotonin secretion (converted)
[14] = read-out: IC50 platelet aggregation (secondary phase)
[15] = read-out: pIC50 platelet aggregation (secondary phase) (converted)

Row | Compound | IC50 [1, 10] | IC50 [1, 11] | IC50 [2, 12] | IC50 [2, 13] | IC50 [3, 10] | IC50 [3, 11] | IC50 [4, 10] | IC50 [4, 11] | IC50 [5, 12] | IC50 [5, 13] | IC50 [6, 14] | IC50 [6, 15] | IC50 [7, 12] | IC50 [7, 13] | IC50 [8, 14] | IC50 [8, 15] | inhibition of aggregation and serotonin release (human platelets) | potency relative to 2 as an inhibitor of human platelet activation (human platelets; relative to analog 2) | pKa [9] | times more acidic than 1 [9]
1 | COc1cc(CC2NCCc3cc(O)c(O)c(F)c32)cc(OC)c1OC (stereo not drawn) [Compound 8-F-TMQ, 8-fluoro-trimetoquinol] | 3.9 µM | 3.89 µM | 4.4 µM | 4.37 µM | 26.2 µM | 26.3 µM | 9.8 µM | 9.77 µM | 7.6 µM | 7.59 µM | 6.5 µM | 6.46 µM | 6.6 µM | 6.61 µM | 11 µM | 11 µM | inhibitors of aggregation and serotonin release by each inducer | about 2 fold | 7.86 ± 0.15 | 8 times
2 | COc1cc(CC2NCCc3c2cc(O)c(O)c3F)cc(OC)c1OC (stereo not drawn) [Compound 5-F-TMQ, 5-fluoro-trimetoquinol] | 7.4 µM | 7.41 µM | 6.9 µM | 6.92 µM | 77.5 µM | 77.6 µM | 51.3 µM | 51.3 µM | 13.2 µM | 13.2 µM | 15.1 µM | 15.1 µM | 17 µM | 17 µM | 14.8 µM | 14.8 µM | inhibitors of aggregation and serotonin release by each inducer | – | 8.11 ± 0.15 | 4 times
